Test results: patent US5332733A, “Heterocyclically substituted piperazinoakylbenzoxazine and piperazinoalkylbenzothiazine compounds, processes for preparing them, and medicaments containing them” (Kali-Chemie Pharma GmbH, priority 1990, dated 1994)

Target: T1, cyclooxygenase (Mus musculus, UniProt P22437)
T1 construct: A cell suspension containing peritoneal cells from male mice 8-10 weeks old was obtained in a known manner; endogenous in cells; host or cells: mouse peritoneal macrophages (primary, adherent)
T1 sequence (P22437 27-602): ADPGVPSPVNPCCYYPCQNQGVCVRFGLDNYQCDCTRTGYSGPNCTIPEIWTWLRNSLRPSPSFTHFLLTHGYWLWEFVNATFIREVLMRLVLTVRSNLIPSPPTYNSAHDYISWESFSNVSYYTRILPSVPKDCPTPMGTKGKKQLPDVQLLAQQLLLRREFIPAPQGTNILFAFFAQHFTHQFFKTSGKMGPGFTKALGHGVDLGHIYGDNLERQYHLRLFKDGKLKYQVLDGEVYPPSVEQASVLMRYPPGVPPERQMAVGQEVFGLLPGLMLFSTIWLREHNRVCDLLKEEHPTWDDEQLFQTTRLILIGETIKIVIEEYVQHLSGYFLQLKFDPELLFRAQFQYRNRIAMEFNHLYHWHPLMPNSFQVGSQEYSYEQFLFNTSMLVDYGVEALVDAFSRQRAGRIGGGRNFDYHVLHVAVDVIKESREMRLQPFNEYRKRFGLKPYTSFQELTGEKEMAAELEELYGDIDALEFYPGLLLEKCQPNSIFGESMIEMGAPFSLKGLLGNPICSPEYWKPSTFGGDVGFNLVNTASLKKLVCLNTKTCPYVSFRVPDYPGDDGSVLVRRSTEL
Experiment: In vitro cyclooxygenase inhibition, release of 6-keto-PGF1α from zymosan-stimulated peritoneal macrophages
Format: cell-based
Conditions: zymosan-stimulated mouse peritoneal macrophage cells, 10^-5 mole/l
Description: 5. In Vitro Determination of Cyclooxygenase Inhibition And 5-lipoxygenase Inhibition.
After a cell is activated, arachidonic acid contained in cell membranes is metabolized in two ways. Leucotrienes, inter alia leucotriene C4, are formed due to the action of the enzyme 5-lipoxygenase (=5-LO), and prostanoids are formed due to the action of the enzyme cyclooxygenase (=CO). In in vitro systems these metabolites are secreted from the cell.
To evaluate the cyclooxygenase-inhibiting and 5-lipoxygenase-inhibiting properties of the test substances, their inhibitory activity on the biosynthesis of the arachidonic acid derivatives leucotriene C4 (=LTC4) and 6-keto-prostaglandin F1α (=6-keto-PGF1α) was determined in vitro on mouse peritoneal macrophage cells. For this purpose the LTC4 and 6-keto-PGF1α contents of a mouse peritoneal macrophage cell culture medium were determined by zymosan stimulation as described by Scott et al. (J. Exp. Med. 152 (1980), 324-335) and by Fradin et al., (Prostaglandins, 33 (1987), 579-589).
A cell suspension containing peritoneal cells from male mice 8-10 weeks old was obtained in a known manner. A solution marketed under the designation RPMI 1640 (Manufactured by Gibco) was used as the cell culture medium, to which heparin (10 international units/ml) and antibiotics were added according to the procedure of Bonney et al. (Biochem. J. 176 (1978) 422-433). The cell suspension was adjusted to a cell concentration of 10^6 cells per ml and distributed uniformly on titer dishes containing 24 1-ml titer cells (wells). These were kept for two hours in a humidified incubator filled with air enriched with 7% CO2. Cells not adhering to the titer well walls were then removed by washing. The remaining macrophage cells adhering to the walls were incubated for about 12 hours in a suspension medium to which 0.1% of bovine serum albumin (BSA=Bovine Serum Albumin) was added. The suspension medium was then replaced by a Hanks salt solution (=Hanks Balanced Salt Solution=HBSS) with 10 mmoles of HEPES (=hydroxyethylpiperazinoethanesulfonic acid) to which a 0.1% strength solution of the test substances in aqueous, 1% strength dimethylformamide or only the solvent had been added. After 15 minutes the arachidonic acid metabolism was stimulated by adding […] of zymosan (=glycoprotein mixture isolated from cell walls of beer yeast, Saccharomyces cerevisiae, Manufactured by Sigma Chemical Co., Munich) per titre cell. After 2 hours samples of the respective supernatant liquid in each cell were examined for their 6-keto-PGF1α and LTC4 contents by an enzyme immunoassay (=EIA). This EIA is carried out following the method of Pradelles et al. (Analytical Chem. 57 (1985), 1170-1173). The determination of LTC4 and the determination of 6-keto-PGF1α were each carried out on suitable dilutions of the samples (1:50 to 1:250 for the LTC4 determination and 1:250 to 1:1,250 for the 6-keto-PGF1α determination) in comparison with a comparative scale. To determine the inhibiting effect of a 10^-5 molar concentration of the compounds, the amounts of reference eicosanoid were determined, and the inhibiting effect was calculated therefrom in % inhibition compared to the measurements of the zymosan controls.

Point of comparison: `Cc1ccnc(N2CCN(CCCCC3Oc4ccccc4NC3=O)CC2)c1` (centres unmarked) [Example 7], “% inhibition upon release of 6-keto-PGF1α” value 17%. Against it:
- Cc1ccnc(N2CCN(CCCCC3Sc4ccccc4NC3=O)CC2)c1 (centres unmarked) [Example 1, 2-{4-[4-(4-methylpyridin-2-yl)-piperazin-1-yl]butyl}-2H-1,4-benzothiazine-3(4H)-one] — higher, 27%
- O=C1Nc2ccccc2SC1CCCN1CCN(c2ccc(Cl)cn2)CC1 (centres unmarked) [Example 15] — higher, 46%
- Cc1ccnc(N2CCN(CCCC3Sc4ccccc4NC3=S)CC2)c1 (centres unmarked) [Example 11] — lower, 0%
- Cc1ccnc(N2CCN(CCCC3Oc4ccccc4NC3=O)CC2)c1 (centres unmarked) [Example 9] — higher, 32%
